Source: patent publication US20240247035A1, “STAPLED ANTIMICROBIAL PEPTIDES (STAMPS) AND USES THEREOF” (Lytica Therapeutics, Inc., priority 2021, published 2024)
≈ marks a conversion by molar mass, not a printed value. Bridge positions count the residues as written; N and C are the ends. Square brackets hold non-standard residues; d marks the D form. Peptide text beside a SMILES is read from it. Phe(4-tBu) = CC(C)(C)c1ccc(C[C@H](N)C(=O)O)cc1; S5 = C=CCCC[C@](C)(N)C(=O)O; Orn = NCCC[C@H](N)C(=O)O; Dab = NCC[C@H](N)C(=O)O; Dap = NC[C@H](N)C(=O)O

How the values were obtained:
[1] = 90 minute cytotoxicity assay (LDH release), renal toxicity; type: cell-based; settings: human
Protocol: (§1) Cell culture: RPTEC were maintained in MEM media supplemented with growth factors. HEPG2 cell line was maintained in Eagle's Minimum Essential Medium (EMEM) supplemented with fetal bovine serum to a final concentration of 10%.
90 minute cytotoxicity assay: Cells were plated in a 96-well format, and after overnight incubation, media was replaced with fresh media. Serial dilutions of StAMPs from a 5 mg/mL water stock, or vehicle, were added to the cells in a final volume of 100 μl. After incubating at 37° C. for 90 min, 50 μl of cell culture media was transferred to a clear 96-well plate, incubated with 50 μl of lactate dehydrogenase (LDH) assay reagent for 10 min, and absorbance measured at 490 nm on a microplate reader.
(§2) Renal toxicity was measured after 90 minutes of incubation, while liver toxicity was measured after 48 hours of incubation with StAMPs. N/A=not tested.

[2] = 48 hours cytotoxicity assay (CellTiter-Glo), liver toxicity; type: cell-based; settings: human
Protocol: as §1
48 hours cytotoxicity assay: Cells were plated in a 96-well format, and after 4 hour incubation to allow attachment, serial dilutions of StAMPs from a 5 mg/mL water stock, or vehicle, were then added to the cells in a final volume of 100 μl. After incubating at 37° C. for 48 hours, 100 μl of CellTiter-Glo® reagent was added to the cells, and the plates were incubated 10 minutes at room temperature. Luminescence was then measured on a microplate reader.
as §2

Compound	IC50 at 90 min [1] [µg/mL]	IC50 at 48 hours [2] [µg/mL]
CC[C@H](C)[C@H](NC(=O)[C@H](CCCCN)NC(=O)[C@H](CCCCN)NC(=O)CNC(=O)[C@H](C)NC(=O)[C@]1(C)CCCC=CCCC[C@](C)(NC(=O)CN)C(=O)N[C@@H](Cc2ccccc2)C(=O)N[C@@H](CO)C(=O)N[C@@H](CCCCN)C(=O)N1)C(=O)N[C@@H](CCCCN)C(=O)N[C@@H](CC(N)=O)C(=O)N[C@@H](CC(C)C)C(=O)N[C@@]1(C)CCCC=CCCC[C@@](C)(C(=O)N[C@@H](CCCCN)C(=O)N[C@@H](CC(N)=O)C(N)=O)NC(=O)CNC(=O)[C@H](CO)NC(=O)[C@H]([C@@H](C)CC)NC1=O [compound 10] (H-G[S5]FSK[S5]AGKKIKNL[S5]ISG[S5]KN-NH2; staple 2-6, 15-19)	18 (≈ 7.86 µM)	16 (≈ 6.99 µM)
CC[C@H](C)[C@H](NC(=O)[C@H](CCCCN)NC(=O)[C@H](CCCCN)NC(=O)CNC(=O)[C@H](C)NC(=O)[C@]1(C)CCCC=CCCC[C@](C)(NC(=O)CN)C(=O)N[C@@H](CCCCN)C(=O)N[C@@H](CO)C(=O)N[C@@H](CCCCN)C(=O)N1)C(=O)N[C@@H](CCCCN)C(=O)N[C@@H](CC(N)=O)C(=O)N[C@@H](CC(C)C)C(=O)N[C@@]1(C)CCCC=CCCC[C@@](C)(C(=O)N[C@@H](CCCCN)C(=O)N[C@@H](CC(N)=O)C(N)=O)NC(=O)CNC(=O)[C@H](CO)NC(=O)[C@H]([C@@H](C)CC)NC1=O [compound 11] (H-G[S5]KSK[S5]AGKKIKNL[S5]ISG[S5]KN-NH2; staple 2-6, 15-19)	186 (≈ 81.9 µM)	125 (≈ 55 µM)
CC[C@H](C)[C@@H]1NC(=O)[C@@](C)(NC(=O)[C@H](CC(C)C)NC(=O)[C@H](CC(N)=O)NC(=O)[C@H](CCCCN)NC(=O)[C@H](CC(C)C)NC(=O)[C@H](CCCCN)NC(=O)[C@H](CCCCN)NC(=O)CNC(=O)[C@H](C)NC(=O)[C@]2(C)CCCC=CCCC[C@](C)(NC(=O)CN)C(=O)N[C@@H](CCCCN)C(=O)N[C@@H](CO)C(=O)N[C@@H](CCCCN)C(=O)N2)CCCC=CCCC[C@@](C)(C(=O)N[C@@H](CCCCN)C(=O)NCC(N)=O)NC(=O)CNC(=O)[C@H](CO)NC1=O [compound 12] (H-G[S5]KSK[S5]AGKKLKNL[S5]ISG[S5]KG-NH2; staple 2-6, 15-19)	> 200	91 (≈ 41.1 µM)
CC[C@H](C)[C@@H]1NC(=O)[C@@](C)(NC(=O)[C@H](CC(C)C)NC(=O)[C@H](CC(N)=O)NC(=O)[C@H](CCCCN)NC(=O)[C@H](CC(C)C)NC(=O)[C@H](CCCCN)NC(=O)[C@H](CCCCN)NC(=O)CNC(=O)[C@H](C)NC(=O)[C@]2(C)CCCC=CCCC[C@](C)(NC(=O)CN)C(=O)N[C@@H](Cc3ccccc3)C(=O)N[C@@H](CO)C(=O)N[C@@H](CCCCN)C(=O)N2)CCCC=CCCC[C@@](C)(C(=O)N[C@@H](CCCCN)C(=O)N[C@@H](CC(N)=O)C(N)=O)NC(=O)CNC(=O)[C@H](CO)NC1=O [compound 13] (H-G[S5]FSK[S5]AGKKLKNL[S5]ISG[S5]KN-NH2; staple 2-6, 15-19)	17 (≈ 7.42 µM)	210 (≈ 91.7 µM)
CC[C@H](C)[C@H](NC(=O)[C@H](CCN)NC(=O)[C@H](CCN)NC(=O)CNC(=O)[C@H](CCN)NC(=O)[C@]1(C)CCCC=CCCC[C@](C)(NC(=O)CN)C(=O)N[C@@H](Cc2ccccc2)C(=O)N[C@@H](CO)C(=O)N[C@@H](CCN)C(=O)N1)C(=O)N[C@@H](CCN)C(=O)N[C@@H](CC(N)=O)C(=O)N[C@@H](CC(C)C)C(=O)N[C@@]1(C)CCCC=CCCC[C@@](C)(C(=O)N[C@@H](CCN)C(=O)NCC(N)=O)NC(=O)CNC(=O)[C@H](CO)NC(=O)[C@H]([C@@H](C)CC)NC1=O [compound 14] (H-G[S5]FS[Dab][S5][Dab]G[Dab][Dab]I[Dab]NL[S5]ISG[S5][Dab]G-NH2; staple 2-6, 15-19)	40 (≈ 18.9 µM)	~150 (≈ 70.7 µM)
CC[C@H](C)[C@H](NC(=O)[C@H](CCCN)NC(=O)[C@H](CCCN)NC(=O)CNC(=O)[C@H](CCCN)NC(=O)[C@]1(C)CCCC=CCCC[C@](C)(NC(=O)CN)C(=O)N[C@@H](Cc2ccccc2)C(=O)N[C@@H](CO)C(=O)N[C@@H](CCCN)C(=O)N1)C(=O)N[C@@H](CCCN)C(=O)N[C@@H](CC(N)=O)C(=O)N[C@@H](CC(C)C)C(=O)N[C@@]1(C)CCCC=CCCC[C@@](C)(C(=O)N[C@@H](CCCN)C(=O)NCC(N)=O)NC(=O)CNC(=O)[C@H](CO)NC(=O)[C@H]([C@@H](C)CC)NC1=O [compound 15] (H-G[S5]FS[Orn][S5][Orn]G[Orn][Orn]I[Orn]NL[S5]ISG[S5][Orn]G-NH2; staple 2-6, 15-19)	25 (≈ 11.3 µM)	~100 (≈ 45.3 µM)
CC[C@H](C)[C@H](NC(=O)[C@H](CN)NC(=O)[C@H](CN)NC(=O)CNC(=O)[C@H](CN)NC(=O)[C@]1(C)CCCC=CCCC[C@](C)(NC(=O)CN)C(=O)N[C@@H](Cc2ccccc2)C(=O)N[C@@H](CO)C(=O)N[C@@H](CN)C(=O)N1)C(=O)N[C@@H](CN)C(=O)N[C@@H](CC(N)=O)C(=O)N[C@@H](CC(C)C)C(=O)N[C@@]1(C)CCCC=CCCC[C@@](C)(C(=O)N[C@@H](CN)C(=O)NCC(N)=O)NC(=O)CNC(=O)[C@H](CO)NC(=O)[C@H]([C@@H](C)CC)NC1=O [compound 16] (H-G[S5]FS[Dap][S5][Dap]G[Dap][Dap]I[Dap]NL[S5]ISG[S5][Dap]G-NH2; staple 2-6, 15-19)	> 200	~200 (≈ 98.2 µM)
CC[C@H](C)[C@H](NC(=O)[C@H](CCCCN)NC(=O)[C@H](CCCCN)NC(=O)CNC(=O)[C@H](CCCCN)NC(=O)[C@]1(C)CCCC=CCCC[C@](C)(NC(=O)CN)C(=O)N[C@@H](CCCCN)C(=O)N[C@@H](CO)C(=O)N[C@@H](CCCCN)C(=O)N1)C(=O)N[C@@H](CCCCN)C(=O)N[C@@H](CC(N)=O)C(=O)N[C@@H](CC(C)C)C(=O)N[C@@]1(C)CCCC=CCCC[C@@](C)(C(=O)N[C@@H](CCCCN)C(=O)N[C@@H](CC(N)=O)C(N)=O)NC(=O)CNC(=O)[C@H](CO)NC(=O)[C@H]([C@@H](C)CC)NC1=O [compound 17] (H-G[S5]KSK[S5]KGKKIKNL[S5]ISG[S5]KN-NH2; staple 2-6, 15-19)	325 (≈ 140 µM)	172 (≈ 73.9 µM)
CC[C@H](C)[C@H](NC(=O)[C@H](CCCCN)NC(=O)[C@H](CCCCN)NC(=O)CNC(=O)[C@H](CCCCN)NC(=O)[C@]1(C)CCCC=CCCC[C@](C)(NC(=O)CN)C(=O)N[C@@H](CCCCN)C(=O)N[C@@H](CO)C(=O)N[C@@H](CCCCN)C(=O)N1)C(=O)N[C@@H](CCCCN)C(=O)N[C@@H](CC(N)=O)C(=O)N[C@@H](Cc1ccc(C(C)(C)C)cc1)C(=O)N[C@@]1(C)CCCC=CCCC[C@@](C)(C(=O)N[C@@H](CCCCN)C(=O)N[C@@H](CC(N)=O)C(N)=O)NC(=O)CNC(=O)[C@H](CO)NC(=O)[C@H]([C@@H](C)CC)NC1=O [compound 19] (H-G[S5]KSK[S5]KGKKIKN[Phe(4-tBu)][S5]ISG[S5]KN-NH2; staple 2-6, 15-19)	68 (≈ 28.1 µM)	23 (≈ 9.51 µM)
CC[C@H](C)[C@H](NC(=O)[C@H](CCCCN)NC(=O)[C@H](CCCCN)NC(=O)CNC(=O)[C@H](CCCCN)NC(=O)[C@]1(C)CCCC=CCCC[C@](C)(NC(=O)CN)C(=O)N[C@@H](CCCCN)C(=O)N[C@@H](CO)C(=O)N[C@@H](CCCCN)C(=O)N1)C(=O)N[C@@H](CCCCN)C(=O)N[C@@H](CC(N)=O)C(=O)N[C@@H](CC(C)C)C(=O)N[C@@]1(C)CCCC=CCCC[C@@](C)(C(=O)N[C@@H](CCCCN)C(=O)N[C@@H](CC(N)=O)C(N)=O)NC(=O)CNC(=O)[C@H](CO)NC(=O)[C@H](Cc2ccc(C(C)(C)C)cc2)NC1=O [compound 20] (H-G[S5]KSK[S5]KGKKIKNL[S5][Phe(4-tBu)]SG[S5]KN-NH2; staple 2-6, 15-19)	46 (≈ 19 µM)	29 (≈ 12 µM)
CC[C@H](C)[C@H](NC(=O)[C@H](CCCCN)NC(=O)[C@H](CCCCN)NC(=O)CNC(=O)[C@H](CCCCN)NC(=O)[C@]1(C)CCCC=CCCC[C@](C)(NC(=O)CN)C(=O)N[C@@H](CCCCN)C(=O)N[C@@H](CO)C(=O)N[C@@H](CCCCN)C(=O)N1)C(=O)N[C@@H](CCCCN)C(=O)N[C@@H](CC(N)=O)C(=O)N[C@@H](CC(C)C)C(=O)N[C@@]1(C)CCCC=CCCC[C@@](C)(C(=O)N[C@@H](CCCCN)C(=O)N[C@@H](CC(N)=O)C(N)=O)NC(=O)[C@H](C(C)C)NC(=O)[C@H](CO)NC(=O)[C@H]([C@@H](C)CC)NC1=O [compound 21] (H-G[S5]KSK[S5]KGKKIKNL[S5]ISV[S5]KN-NH2; staple 2-6, 15-19)	54 (≈ 22.8 µM)	32 (≈ 13.5 µM)
CC[C@H](C)[C@H](NC(=O)[C@H](CCCCN)NC(=O)[C@H](CCCCN)NC(=O)CNC(=O)[C@H](CCCCN)NC(=O)[C@]1(C)CCCC=CCCC[C@](C)(NC(=O)CN)C(=O)N[C@@H](CCCCN)C(=O)N[C@@H](CO)C(=O)N[C@@H](CCCCN)C(=O)N1)C(=O)N[C@@H](CCCCN)C(=O)N[C@@H](CC(N)=O)C(=O)N[C@@H](CC(C)C)C(=O)N[C@@]1(C)CCCC=CCCC[C@@](C)(C(=O)N[C@@H](CCCCN)C(=O)N[C@@H](CC(N)=O)C(N)=O)NC(=O)[C@H](Cc2ccccc2)NC(=O)[C@H](CO)NC(=O)[C@H]([C@@H](C)CC)NC1=O [compound 22] (H-G[S5]KSK[S5]KGKKIKNL[S5]ISF[S5]KN-NH2; staple 2-6, 15-19)	16 (≈ 6.62 µM)	67 (≈ 27.7 µM)
